Reference: ChEMBL document CHEMBL4699404, “Arylsulfonyl histamine derivatives as powerful and selective alpha-glucosidase inhibitors” (RSC Med Chem, 2020)
Calls of active or inactive are those of the source. No cut-off for these calls is given here.

Columns and labels:
Saccharomyces cerevisiae [1] = assay: Inhibition of Saccharomyces cerevisiae alpha-glucosidase using p-nitrophenyl-alpha-o-D-glucopyranoside as substrate at 100 uM measured for 10 mins by microplate assay relative to control
Saccharomyces cerevisiae [2] = assay: Inhibition of Saccharomyces cerevisiae alpha-glucosidase using p-nitrophenyl-alpha-o-D-glucopyranoside as substrate at 122 uM measured for 10 mins by microplate assay relative to control
Kluyveromyces lactis = assay: Inhibition of Kluyveromyces lactis beta-galactosidase using o-nitrophenyl-beta-o-D-galactopyranoside as substrate at 100 to 2500 uM measured for 10 mins; conditions: dose microM 100-2500, time 10.0 min
[3] = target: Acetylcholinesterase (Electrophorus electricus) (UniProt O42275); assay: Inhibition of electric eel AChE using acetylthiocholine iodide as substrate at 1.5 uM measured for 15 mins by Ellman's method relative to control
Sequence of Acetylcholinesterase (Electrophorus electricus) (O42275 24-633 limits assumed): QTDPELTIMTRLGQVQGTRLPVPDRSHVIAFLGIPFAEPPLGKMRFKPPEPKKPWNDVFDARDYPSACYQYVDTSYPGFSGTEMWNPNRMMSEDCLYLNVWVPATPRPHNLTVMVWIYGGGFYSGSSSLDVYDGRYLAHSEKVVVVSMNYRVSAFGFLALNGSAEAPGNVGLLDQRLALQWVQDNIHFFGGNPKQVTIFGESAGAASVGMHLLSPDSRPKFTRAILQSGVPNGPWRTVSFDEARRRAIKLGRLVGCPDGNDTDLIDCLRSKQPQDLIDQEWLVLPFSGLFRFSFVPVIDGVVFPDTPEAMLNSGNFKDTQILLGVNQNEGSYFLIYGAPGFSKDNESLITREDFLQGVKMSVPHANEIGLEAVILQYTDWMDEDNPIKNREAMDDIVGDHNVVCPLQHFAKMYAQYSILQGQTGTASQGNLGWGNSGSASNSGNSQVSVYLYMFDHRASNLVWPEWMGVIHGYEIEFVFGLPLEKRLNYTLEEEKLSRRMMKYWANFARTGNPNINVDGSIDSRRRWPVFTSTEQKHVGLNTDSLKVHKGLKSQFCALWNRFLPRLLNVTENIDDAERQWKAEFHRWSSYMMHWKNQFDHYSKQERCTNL

Prunus dulcis = assay: Inhibition of almonds beta-glucosidase using p-nitrophenyl-beta-o-D-glucopyranoside as substrate at 65 uM measured for 10 mins
[4] = target: Mushroom tyrosinase (Agaricus bisporus) (UniProt O42713+Q00024+C7FF04+C7FF05); assay: Inhibition of mushroom tyrosinase assessed as reduction in dopachrome formation at 40 uM using L-tyrosine as substrate measured for 30 mins by microplate assay
[5] = target: Xanthine dehydrogenase/oxidase (Bos taurus, UniProt P80457); assay: Inhibition of bovine milk xanthine oxidase assessed as reduction in uric acid formation at 3 uM using xanthine as substrate measured for 20 mins by microplate assay; conditions: cattle
Sequence of Xanthine dehydrogenase/oxidase (P80457 whole entry): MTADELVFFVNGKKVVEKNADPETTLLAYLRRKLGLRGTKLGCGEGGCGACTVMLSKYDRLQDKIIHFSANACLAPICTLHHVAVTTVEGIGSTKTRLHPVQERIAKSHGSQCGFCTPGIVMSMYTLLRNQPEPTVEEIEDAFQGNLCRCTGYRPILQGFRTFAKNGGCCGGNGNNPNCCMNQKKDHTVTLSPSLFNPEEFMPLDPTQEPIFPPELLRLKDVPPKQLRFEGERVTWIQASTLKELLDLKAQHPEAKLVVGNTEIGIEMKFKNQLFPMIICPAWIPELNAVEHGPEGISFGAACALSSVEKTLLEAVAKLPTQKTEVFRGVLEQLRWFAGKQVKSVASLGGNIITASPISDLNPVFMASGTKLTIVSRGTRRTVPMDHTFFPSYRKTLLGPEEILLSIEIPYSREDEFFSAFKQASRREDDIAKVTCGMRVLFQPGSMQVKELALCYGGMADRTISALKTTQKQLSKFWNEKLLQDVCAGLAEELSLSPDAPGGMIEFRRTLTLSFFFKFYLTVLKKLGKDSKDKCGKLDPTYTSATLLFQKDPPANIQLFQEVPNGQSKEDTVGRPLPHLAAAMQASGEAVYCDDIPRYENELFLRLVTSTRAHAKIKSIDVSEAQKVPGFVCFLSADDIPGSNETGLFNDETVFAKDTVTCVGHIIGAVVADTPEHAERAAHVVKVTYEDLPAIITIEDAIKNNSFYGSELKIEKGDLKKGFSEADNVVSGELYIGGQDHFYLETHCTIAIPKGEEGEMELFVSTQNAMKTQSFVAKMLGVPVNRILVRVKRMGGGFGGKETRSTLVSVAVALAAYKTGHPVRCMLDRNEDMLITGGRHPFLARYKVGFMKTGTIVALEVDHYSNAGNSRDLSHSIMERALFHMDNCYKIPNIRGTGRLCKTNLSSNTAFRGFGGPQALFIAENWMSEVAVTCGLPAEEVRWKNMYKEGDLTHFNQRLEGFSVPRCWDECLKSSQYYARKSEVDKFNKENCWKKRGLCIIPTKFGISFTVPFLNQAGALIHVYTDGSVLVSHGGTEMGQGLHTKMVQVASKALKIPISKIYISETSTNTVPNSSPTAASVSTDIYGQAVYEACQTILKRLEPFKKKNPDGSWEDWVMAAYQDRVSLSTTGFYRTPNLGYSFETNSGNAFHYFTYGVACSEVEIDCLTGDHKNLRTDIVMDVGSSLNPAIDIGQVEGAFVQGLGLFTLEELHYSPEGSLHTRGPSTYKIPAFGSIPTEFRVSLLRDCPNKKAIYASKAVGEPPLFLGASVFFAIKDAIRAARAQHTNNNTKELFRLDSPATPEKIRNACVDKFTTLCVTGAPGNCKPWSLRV

[6] = Inhibition of porcine pancreatic alpha-amylase assessed as reduction in conversion of starch to glucose using starch as substrate at 200 uM incubated for 15 mins by starch-iodine method; set-up: species or system Sus scrofa; conditions: pig, 0.25 h
[7] = Toxicity against C57BL/6 mouse assessed as general body position changes at 22.5 mg/kg, po administered via gavage; assay type: organism-based; conditions: in vivo
Saccharomyces cerevisiae [8] = assay: Reversible inhibition of Saccharomyces cerevisiae alpha-glucosidase assessed as recovery of enzyme activity preincubated with enzyme for 30 mins followed by 100-fold dilution and challenge with substrate by jump dilution experiment based microplate assay; set-up: scale not given: the % may be the effect or the level left
[9] = Toxicity against C57BL/6 mouse assessed as behavioural changes at 22.5 mg/kg, po administered via gavage; assay type: organism-based; conditions: in vivo
[10] = Toxicity against C57BL/6 mouse assessed as locomotory changes at 22.5 mg/kg, po administered via gavage; assay type: organism-based; conditions: in vivo
Saccharomyces cerevisiae [11] = assay: Potency index, ratio of acarbose Ki to test compound Ki for competitive inhibition of Saccharomyces cerevisiae alpha-glucosidase using varying levels of p-nitrophenyl-alpha-D-glucopyranoside as substrate by Lineweaver-Burk plot analysis
[12] = Toxicity against C57BL/6 mouse assessed as changes in water consumption at 22.5 mg/kg, po administered via gavage measured for 24 hrs; assay type: organism-based; conditions: in vivo
Mus musculus [13] = assay: Hypoglycemic activity in C57BL/6 mouse assessed as reduction in sucrose-induced postprandial blood glucose level at 22.5 mg/kg, po administered via gavage and measured after 15 to 90 mins by oral sucrose loading test; assay type: functional, organism-based; conditions: time min 15-90
Mus musculus [14] = assay: Hypoglycemic activity in C57BL/6 mouse assessed as reduction in postprandial blood glucose level at 22.5 mg/kg, po administered via gavage measured after 15 to 90 mins by glucometric analysis; assay type: functional, organism-based; conditions: time min 15-90
[15] = Toxicity against C57BL/6 mouse assessed as changes in food consumption at 22.5 mg/kg, po administered via gavage measured for 24 hrs; assay type: organism-based; conditions: in vivo
[16] = Inhibition of almonds beta-glucosidase using p-nitrophenyl-beta-o-D-glucopyranoside as substrate measured for 10 mins; set-up: species or system Prunus dulcis
[17] = Inhibition of Kluyveromyces lactis beta-galactosidase using o-nitrophenyl-beta-o-D-galactopyranoside as substrate measured for 10 mins

Cc1ccc(F)c(S(=O)(=O)NCCc2c[nH]cn2)c1
inhibition (Saccharomyces cerevisiae [1]): < 50%

O=S(=O)(NCCc1cn(S(=O)(=O)c2ccc(F)cc2C(F)(F)F)cn1)c1ccc(F)cc1C(F)(F)F
inhibition (Saccharomyces cerevisiae [1]): > 50%

O=S(=O)(NCCc1cn(S(=O)(=O)c2cc(F)c(F)c(F)c2)cn1)c1cc(F)c(F)c(F)c1
inhibition (Saccharomyces cerevisiae [1]): > 50%

O=S(=O)(NCCc1c[nH]cn1)c1ccc(F)cc1C(F)(F)F
inhibition (Saccharomyces cerevisiae [1]): < 50%

COc1ccc(S(=O)(=O)NCCc2c[nH]cn2)cc1F
inhibition (Saccharomyces cerevisiae [1]): < 50%

Cc1ccc(S(=O)(=O)NCCc2c[nH]cn2)cc1
inhibition (Saccharomyces cerevisiae [1]): < 50%

COc1ccc(S(=O)(=O)NCCc2cn(S(=O)(=O)c3ccc(OC)c(F)c3)cn2)cc1F
inhibition (Saccharomyces cerevisiae [1]): > 50%

Cc1ccc(S(=O)(=O)NCCc2cn(S(=O)(=O)c3ccc(C)cc3)cn2)cc1
inhibition (Saccharomyces cerevisiae [1]): > 50%

O=S(=O)(NCCc1cn(S(=O)(=O)c2ccccc2)cn1)c1ccccc1
inhibition (Saccharomyces cerevisiae [1]): > 50%

O=S(=O)(NCCc1c[nH]cn1)c1ccc(C(F)(F)F)cc1
inhibition (Saccharomyces cerevisiae [1]): < 50%

O=S(=O)(NCCc1c[nH]cn1)c1ccccc1
inhibition (Saccharomyces cerevisiae [1]): < 50%

O=S(=O)(NCCc1cn(S(=O)(=O)c2c(F)c(F)c(F)c(F)c2F)cn1)c1c(F)c(F)c(F)c(F)c1F
inhibition (Saccharomyces cerevisiae [1]): > 50%

O=S(=O)(NCCc1cn(S(=O)(=O)c2ccc(F)cc2Cl)cn1)c1ccc(F)cc1Cl
inhibition (Saccharomyces cerevisiae [1]): > 50%

Cc1ccc(F)c(S(=O)(=O)NCCc2cn(S(=O)(=O)c3cc(C)ccc3F)cn2)c1
inhibition (Saccharomyces cerevisiae [2]): 72.2% | inhibition (Kluyveromyces lactis): inactive | inhibition (Saccharomyces cerevisiae [1]): > 50% | inhibition [3]: 7.14% | inhibition (Prunus dulcis): inactive | inhibition [4]: inactive | inhibition (INH) [5]: Not Active | inhibition (INH) [6]: Not Active

O=S(=O)(NCCc1cn(S(=O)(=O)c2ccc(C(F)(F)F)cc2)cn1)c1ccc(C(F)(F)F)cc1
inhibition (Saccharomyces cerevisiae [2]): 79.9% | inhibition (Kluyveromyces lactis): inactive | inhibition (Saccharomyces cerevisiae [1]): > 50% | Activity [7]: Non-Toxic | Activity (Saccharomyces cerevisiae [8]): 97% | Activity [9]: Non-Toxic | Activity [10]: Non-Toxic | Ratio Ki (Saccharomyces cerevisiae [11]): 7 | inhibition [3]: 2.31% | Activity [12]: Non-Toxic | inhibition (Prunus dulcis): inactive | Activity (Mus musculus [13]): Active | inhibition [4]: inactive | Activity (Mus musculus [14]): Active | inhibition (INH) [5]: Not Active | inhibition (INH) [6]: Not Active | Activity [15]: Non-Toxic

O=S(=O)(NCCc1c[nH]cn1)c1ccc(F)cc1
inhibition (Saccharomyces cerevisiae [1]): < 50%

O=S(=O)(NCCc1c[nH]cn1)c1cc(F)c(F)c(F)c1
inhibition (Saccharomyces cerevisiae [1]): < 50%

O=S(=O)(NCCc1cn(S(=O)(=O)c2ccc(F)cc2)cn1)c1ccc(F)cc1
inhibition (Saccharomyces cerevisiae [1]): > 50%

OC[C@H]1NC[C@H](O)[C@@H](O)[C@@H]1O [DUVOGLUSTAT]
IC50 [16]: 65.2 µM

OC[C@H]1NC[C@H](O)[C@@H](O)[C@H]1O
IC50 [17]: 90 µM
